Data on 15 compounds can be found in patent publication US8273737B2, “Quinolizidinone M1 receptor positive allosteric modulators” (Merck Sharp & Dohme Corp., priority 2008, dated 2012).

This experiment addresses T1, acetylcholine muscarinic M1 receptor (Homo sapiens, UniProt P11229).
T1 construct: expressed in transfected cells; host or cells: CHOnfat (CHO cells, Geneticin-selected)
T1 sequence (P11229 1-460): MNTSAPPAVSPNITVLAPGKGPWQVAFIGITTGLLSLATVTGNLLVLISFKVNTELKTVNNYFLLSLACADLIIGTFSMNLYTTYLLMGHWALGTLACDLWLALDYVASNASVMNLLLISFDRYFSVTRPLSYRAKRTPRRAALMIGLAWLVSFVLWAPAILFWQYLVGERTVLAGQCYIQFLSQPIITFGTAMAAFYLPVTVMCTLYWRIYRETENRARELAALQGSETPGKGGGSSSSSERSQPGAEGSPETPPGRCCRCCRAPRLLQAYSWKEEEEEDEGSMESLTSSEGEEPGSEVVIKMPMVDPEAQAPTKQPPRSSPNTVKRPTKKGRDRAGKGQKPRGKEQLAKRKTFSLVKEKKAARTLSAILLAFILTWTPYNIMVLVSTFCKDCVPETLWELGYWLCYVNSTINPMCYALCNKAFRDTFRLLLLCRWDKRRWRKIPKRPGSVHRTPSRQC
Description: muscarinic FLIPR assay: potentiation of acetylcholine-stimulated intracellular Ca2+ in CHOnfat/hM1 cells. Type of experiment: cell-based. Conditions: 4 min preincubation, then EC20 acetylcholine (3 nM final), read-out: IP Value (inflection point). As to the method:
The assay studies the effect of one or several concentrations of test compounds on basal or acetylcholine-stimulated Ca^2+ levels using FLIPR.
Compounds are prepared and subjected to a preincubation period of 4 min. Thereafter, a single EC20 concentration of acetylcholine is added to each well (3 nM final). The intracellular Ca^2+ level of each sample is measured and compared to an acetylcholine control to determine any modulatory activity.
Cells: CHOnfat/hM1, hM2, hM3 or hM4 cells are plated 24 hr before the assay at a density of 18,000 cells/well (100 μL) in a 384 well plate. CHOnfat/hM1 and CHOnfat/hM3 Growth Medium: 90% DMEM (Hi Glucose); 10% HI FBS; 2 mM L-glutamine; 0.1 mM NEAA; Pen-Strep; and 1 mg/ml Geneticin, are added. For M2Gqi5CHOnfat and M4Gqi5CHOnfat cells, an additional 600 μg/ml hygromycin is added.
Equipment: 384 well plate, 120 μL addition plate; 96-well Whatman 2 ml Uniplate Incubator, 37° C., 5% CO2; Skatron EMBLA-384 Plate Washer; Multimek Pipetting System; Genesis Freedom 200 System; Mosquito System; Temo Nanolitre Pipetting System; and FLIPR^384 Fluorometric Imaging Plate Reader System are used.
Buffers. Assay Buffer: Hanks Balanced Salt Solution, with 20 mM Hepes, 2.5 mM Probenecid (Sigma P-8761) first dissolved in 1N aqueous NaOH, 1% Bovine Serum Albumin (Sigma A-9647). Dye Loading Buffer: Assay Buffer plus 1% Fetal Bovine Serum and Fluo-4AM/Pluronic Acid Mixture. 2 mM Fluo-4AM ester stock in DMSO (Molecular Probes F-14202) Concentration of 2 μM in buffer for a final concentration of 1 μM in Assay. 20% Pluronic Acid Solution stock, with a concentration of 0.04% in Buffer, 0.02% in Assay.
65 μL of 2 mM Fluo-4AM are mixed with 130 μL of 20% Pluronic Acid. The resulting solution and 650 μL FBS is added to the assay buffer for a total volume of 65 mL. Positive Controls: 4-Br-A23187: 10 mM in DMSO; final concentration 10 μM. Acetylcholine: 10 mM in water, working stock at both 20 μM and 30 μM in assay buffer, final concentration of 10 μM. This is used to check the maximum stimulation of the CHOK1/hM1 cells. 20 μM (2×) acetylcholine is added in the preincubation part of the assay, and the 30 μM (3×) stock is added in the second part. (EC20)Acetylcholine: 10 mM in water, working stock of 9 nM (3×), and final concentration in assay is 3 nM. This is used after the preincubation with test compounds. Addition of the EC20 Acetylcholine to each well with a test compound will ascertain any modulator activity. 24 wells contain 3 nM Acetylcholine alone as a control.
Determining Activity of Putative Compounds:
Screening Plate Compounds are titrated in 96-well plates (columns 2-11), 100% DMSO, started at a concentration of 15 mM (150× stock concentration), and 3-fold serial dilutions using Genesis Freedom200 System. Four 96-well plates are combined into a 384-well plate using Mosquito Nanolitre Pipetting System by transferring 1 μl of serial diluted compounds to each well, and 1 mM acetylcholine (100× stock concentration) were added as a control. Using Temo, 49 μl assay buffer is added to each well of the 384-well plate right before assay.
In a 96-well Whatman 2 ml Uniplate, 9 nM Acetylcholine (3×) is pipetted into wells corresponding to the screening compounds and into control wells. The 30 μM acetylcholine control (3×) is added into control wells and the 3× agonist plate is transferred into a 384-well plate.
Cells are washed three times with 100 μL of buffer, leaving 30 μL of buffer in each well. Using Multimek, 30 μL of Dye Loading Buffer is added into each well and incubated at 37° C., 5% CO2 for up to one hr.
After 60 min, the cells are washed three times with 100 μL of buffer, leaving 30 μL of buffer in each well. The cell plate, screening plate, and agonist addition plates are placed on the platform in the FLIPR and the door is closed. A signal test to check background fluorescence and basal fluorescence signal is performed. Laser intensity is adjusted if necessary. […]
Take `O=C(O)c1cc(CN2CCN(c3ccc(C(F)(F)F)cc3)CC2)c2ccccn2c1=O` [Example 1, 4-oxo-1-({4-[4-(trifluoromethyl)phenyl]piperazin-1-yl}methyl)-4H-quinolizine-3-carboxylic acid]: the EC50 stood at 270 nM.

Take `O=C(O)c1cc(CN2CCN(c3ccc(Br)cc3)CC2)c2ccccn2c1=O` [Example 61]: the EC50 came to 132 nM. As for `Cn1cc(N2CCN(Cc3cc(C(=O)O)c(=O)n4ccccc34)CC2)cn1` [Example 113], the EC50 is 408 nM. For `O=C(O)c1cc(CN2CCN(c3cc4ccccc4cn3)CC2)c2ccccn2c1=O` [Example 133], the EC50 came to 90 nM. For `O=C(O)c1cc(CN2CCN(c3ccc4sccc4c3)CC2)c2ccccn2c1=O` [Example 143], the EC50 is 71 nM. `O=C(O)c1cc(CN2CCN(c3ccc4ncsc4c3)CC2)c2ccccn2c1=O` [Example 144]: the EC50 is 81 nM.

With `N#Cc1cc2cc(N3CCN(Cc4cc(C(=O)O)c(=O)n5ccccc45)CC3)ccc2o1` [Example 145, 1-{[4-(2-cyano-1-benzofuran-5-yl)piperazin-1-yl]methyl}-4-oxo-4H-quinolizine-3-carboxylic acid], the EC50 stood at 91 nM.

In the case of `N#Cc1ccc(N2CCN(Cc3cc(C(=O)O)c(=O)n4ccccc34)CC2)cc1` [Example 146, 1-{[4-(4-cyanophenyl)piperazin-1-yl]methyl}-4-oxo-4H-quinolizine-3-carboxylic acid], the EC50 was found to be 616 nM. Consider `N#Cc1ccc(N2CCN(Cc3cc(C(=O)O)c(=O)n4ccccc34)CC2)cn1` [Example 147, 1-{[4-(6-cyanopyridin-3-yl)piperazin-1-yl]methyl}-4-oxo-4H-quinolizine-3-carboxylic acid], for which the EC50 was 614 nM. Take `C=Cc1cc(N2CCN(Cc3cc(C(=O)O)c(=O)n4ccccc34)CC2)ccn1` [Example 148, 4-Oxo-1-{[4-(2-vinylpyridin-4-yl)piperazine-1-yl]methyl}-4H-quinolizine-3-carboxylic acid]: the EC50 is 380 nM. In the case of `CSc1cc(N2CCN(Cc3cc(C(=O)O)c(=O)n4ccccc34)CC2)ccn1` [Example 153, 1-({4-[2-(methylthio)pyridine-4-yl]piperazine-1-yl}methyl)-4-oxo-4H-quinolizine-3-carboxylic acid] it was 640 nM; in that of `CS(=O)(=O)c1cc(N2CCN(Cc3cc(C(=O)O)c(=O)n4ccccc34)CC2)ccn1` [Example 154], 1650 nM. With `CN1CCN(Cc2cc(C(=O)O)c(=O)n3ccccc23)C(c2cccc(F)c2)C1=O` (stereo not drawn) [Example 155, 1-{[2-(3-fluorophenyl)-4-methyl-3-oxopiperazin-1-yl]methyl}-4-oxo-4H-quinolizine-3-carboxylic acid], the EC50 worked out at 4900 nM. Consider `O=C(O)c1cc(CN2CCN(c3ccccc3)C(=O)C2c2cccc(F)c2)c2ccccn2c1=O` (stereo not drawn) [Example 160, 1-{[2-(3-fluorophenyl)-3-oxo-4-phenylpiperazin-1-yl]methyl}-4-oxo-4H-quinolizine-3-carboxylic acid], for which the EC50 turned out to be 119 nM. For the compound `O=C(O)c1cc(CN2CCOCC2)c2ccccn2c1=O` [Example 179, 1-(morpholin-4-ylmethyl)-4-oxo-4H-quinolizine-3-carboxylic acid], the EC50 was determined as 6900 nM.
